We go through 88 molecules from PubChem BioAssay AID588780 (Sanford-Burnham Center for Chemical Genomics, 2011).

pIC50: −log10 of the molar value. Active and inactive are the calls of the source.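 How the source made its calls: active means compounds whose fitted half-maximal concentration in the cell-protection dose series is at or below a set limit; inactive means the rest.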

This test concerns H9c2 cardiomyocytes, 2-deoxyglucose stress, ATP luminescence, 2 h. The experiment in a line: protection of cardiomyocytes from 2-deoxyglucose injury, dose response, cell-based, 2-deoxyglucose stress, uHTS hits (AID 588780).
Turning to `N#CCCn1c(SCC(=O)c2c[nH]c3ccccc23)nc2ccccc21`, the IC50 is 49.4 µM (inactive).

Regarding `CCCCC(=O)Nc1cc(C)c2c(=O)oc3ccccc3c2n1`, the IC50 is > 79 µM (inactive). As for `O=C(NCCc1ccc(F)cc1)C(=O)Nc1cc2c3c(c1)CC(=O)N3CCC2`, the pIC50 is 4.57.

For `CN(C(=O)CCc1nc2ccccc2c(=O)[nH]1)C1CCS(=O)(=O)C1` (stereo not drawn), the IC50 is > 79 µM (inactive).

Take `COc1ccc(C(C(=O)NCc2ccccc2)N(Cc2cccs2)C(=O)c2cnccn2)cc1` (stereo not drawn): the pIC50 was 4.79. With `Cc1sc2nc(NCCO)[nH]c(=O)c2c1C`, the IC50 was > 79 µM (inactive). Same read-out and setting: in the case of `COc1c(O)cccc1/C=N/NC(=O)Cn1ccnc1C` it was > 79 µM (inactive). Still for that read-out and setting: under `Cc1ccc2c(c1)nc1c3ccccc3nc(-c3ccccc3N)n21` stands > 79 µM (inactive); under `CCC(C)N(C(=O)COC(=O)Cc1n[nH]c(=O)c2ccccc12)C1CCS(=O)(=O)C1` (stereo not drawn), > 79 µM (inactive). Same read-out and setting: under `O=C(Cc1n[nH]c(=O)c2ccccc12)OCC(=O)c1ccccc1` stands > 79 µM (inactive); under `CC(C)C1Nc2ccc(C(=O)N3CCN(c4ccccn4)CC3)cc2NC1=O` (stereo not drawn), > 79 µM (inactive). Regarding `CCOC(=O)c1ccccc1NC(=O)CSc1ccc(-c2ccccn2)nn1`, the pIC50 was 4.63. As to `O=C(CNC(=O)c1nc[nH]c1C(=O)NCc1ccccc1)OCc1ccccc1`, the IC50 is > 79 µM (inactive). On the same count and under the same terms, in the case of `Cc1ccc(-c2nnc3ccc(SCC(=O)N4CCCc5ccccc54)nn23)cc1` it was > 79 µM (inactive).

Turning to `COc1ccc(C(=O)Nc2nc(-c3ccccn3)cs2)cc1S(=O)(=O)N1CCOCC1`, the pIC50 was 4.79. Still for that read-out and setting: in the case of `CC(=O)c1cccc(-c2cnc3c(NC=O)cc(-c4ccccc4F)cn23)c1` it was 4.75.

Turning to `Cc1ccc(C(=O)CSc2nc3ccccc3c(=O)[nH]2)cc1`, the IC50 is > 79 µM (inactive). Still for that read-out and setting: under `Cn1c(/C=N/NC(=O)c2ccccc2)nc2ccccc21` stands > 79 µM (inactive); under `O=S(=O)(c1ccc(Cl)cc1)c1cc(O)ccc1O`, > 79 µM (inactive); under `O=C(Cn1nc(C(=O)O)c2ccccc2c1=O)c1c[nH]c2ccccc12`, 36.3 µM (inactive). Still for that read-out and setting: under `CCn1c(O)c(/C=N/N=C2CCCC2)c2ccc(C3=NNC(=O)CC3)cc21` stands > 79 µM (inactive); under `O=C(O)c1nn(CCOc2ccc(Br)cc2)c(=O)c2ccccc12`, > 79 µM (inactive). The same measure, in the same setting: in the case of `O=C(NN=Cc1ccc(N2CCOCC2)s1)c1ccc([N+](=O)[O-])cc1` it was > 79 µM (inactive). Turning to `C=CCOc1ccc(C=Nc2ccc(OC)cc2)c(O)c1`, the pIC50 is 4.62. Regarding `O=C1Nc2ccccc2C(=O)C1(Cl)Cc1ccccc1` (stereo not drawn), the IC50 is > 79 µM (inactive). On the same count and under the same terms, under `Oc1ccc(Br)cc1C=Nc1ccc2[nH]ncc2c1` stands > 79 µM (inactive). For the molecule `COc1ccc2[nH]c(=O)c(CN(c3ccccc3OC)S(=O)(=O)c3ccccc3)cc2c1`, the pIC50 is 4.82. In the case of `Cc1cc2[nH]c(=O)c3ccccc3n2n1`, the IC50 is > 79 µM (inactive). In the case of `Cc1cc(C)c2c(N)c(C(=O)N/N=C/c3cccnc3)sc2n1`, the pIC50 is 4.72. With `COc1ccc(N=Cc2cc(Cl)ccc2O)cc1Cl`, the IC50 was > 79 µM (inactive). For `COc1ccc(OC)c(/C=N/NC(=O)c2cc3c(OC)c(OC)ccc3[nH]2)c1`, the IC50 was > 79 µM (inactive). Still for that read-out and setting: in the case of `CCOC(=O)CNC(=O)CSc1nc2nc(C)c(Br)cc2[nH]1` it was > 79 µM (inactive); in that of `CCOCc1c(C(=O)NC2=Nc3ccccc3NC(CC)=C2C(=O)OCC)oc2ccccc12`, > 79 µM (inactive); in that of `CCCCn1c(NC(=O)c2ccccc2)nc2ccccc21`, > 79 µM (inactive). Still for that read-out and setting: in the case of `CC1Cc2ccccc2N1C(=O)c1cc2c(=O)n3ccccc3nc2n1C` (stereo not drawn) it was > 79 µM (inactive). In the case of `CCN(CC)c1ccc(C2C(C(=O)OC(C)C)C(=O)CC(C)(O)C2C(=O)OC(C)C)cc1` (stereo not drawn), the pIC50 was 4.74. `CCCCOc1ccc(C(=O)NCC(=O)N(C)Cc2nc3ccccc3c(=O)[nH]2)cc1`: the IC50 is > 79 µM (inactive). In the case of `NC(=O)c1cc2ccccc2o/c1=N\NC(=O)c1ccc(F)cc1`, the pIC50 is 5.06.

For `COc1cc(/C=C/C(=O)CC(=O)/C=C/c2ccc(O)c(OC)c2)ccc1O`, the IC50 was > 79 µM (inactive).

As for `COc1ccc(N(CC(=O)N/N=C/c2cccs2)S(=O)(=O)c2ccc(OC)c(OC)c2)cc1`, the pIC50 is 4.56. Still for that read-out and setting: under `CCc1nc2ccc(C(=O)NCc3cccs3)cn2c1N(C)Cc1nccs1` stands 4.65.

Regarding `C/C(=N\NC(=O)CCCNc1ccc(C)cc1)c1ccccn1`, the IC50 was > 79 µM (inactive). On the same count and under the same terms, in the case of `COc1cccc(-c2nn(-c3ccccc3)cc2C(=O)Nc2nccs2)c1` it was > 79 µM (inactive); in that of `COc1cc2c(cc1OC)CN(c1nc(-c3cccnc3)nc3ccccc13)CC2`, > 79 µM (inactive); in that of `CCC1(CC)NC(=O)N(CC(=O)OCC(=O)Nc2ccccc2[N+](=O)[O-])C1=O`, > 79 µM (inactive). Turning to `COCCn1ccc2c(OCC(=O)Nc3ccccc3OC)cccc2c1=O`, the pIC50 was 4.68. In the case of `Oc1c(Cl)cc(Cl)cc1C=Nc1ccc(N2CCOCC2)cc1`, the IC50 is 31.5 µM (inactive). Still for that read-out and setting: in the case of `O=C(CCc1nc2ccccc2c(=O)[nH]1)NNC(=O)c1ccccc1Cl` it was > 79 µM (inactive); in that of `CN(C)N(Cc1ccccc1)C(=O)C(O)(c1ccccc1)c1ccccc1`, > 79 µM (inactive). The same measure, in the same setting: in the case of `CCCn1c(=O)c2[nH]c(-c3ccc(OCC(=O)Nc4ccc(C#N)cc4)cc3)nc2n(CCC)c1=O` it was > 79 µM (inactive); in that of `COc1ccc(NCc2cc3ccccc3[nH]c2=O)cc1`, > 79 µM (inactive); in that of `CCN(CCO)c1ncnc2c1sc1nc(C(C)C)c3c(c12)CC(C)(C)OC3`, > 79 µM (inactive). For the molecule `COc1ccc(C2CCCCCN2C(=O)C2CCN(S(=O)(=O)c3cccc(C(C)=O)c3)CC2)cc1` (stereo not drawn), the IC50 was > 79 µM (inactive).

For `COc1cc(C(=O)N/N=C/c2ccc(OC(=O)c3cccc(C)c3)c(OC)c2)ccc1O`, the IC50 was > 79 µM (inactive). Same read-out and setting: in the case of `O=C(CCc1nc2ccccc2c(=O)[nH]1)OCCOc1ccc(Cl)cc1` it was 31.3 µM (inactive); in that of `Cc1[nH]c2ccccc2c1/C=N/NC(=O)c1cccs1`, 40.2 µM (inactive); in that of `CCCNC(=O)c1ccc(N2CCC3(CC2)CC(c2ccccc2)=NO3)c(NC(=O)c2ccco2)c1`, > 79 µM (inactive). Still for that read-out and setting: in the case of `CCc1cc(C(=O)Nc2nc(-c3ccccn3)cs2)sc1C` it was > 79 µM (inactive). The same measure, in the same setting: under `O=c1cc(CSc2ccc([N+](=O)[O-])cc2)nc2sccn12` stands > 79 µM (inactive). `O=C(NCC(=O)N(Cc1cccs1)C(C(=O)NC1CCCC1)c1ccco1)c1cccs1` (stereo not drawn): the negative-log IC50 (pIC50) was 4.88. In the case of `Cc1cc(-n2c(C)cc(C(=O)COc3ccc4ccc(=O)oc4c3)c2C)no1`, the IC50 was > 79 µM (inactive). On the same count and under the same terms, under `NC(=O)COc1ccc2oc(=O)cc(-c3cc4ccccc4o3)c2c1` stands > 79 µM (inactive); under `NC(=O)c1c(NC(=O)Cn2nc(C(=O)O)c3ccccc3c2=O)sc2c1CCC2`, > 79 µM (inactive). For the molecule `COc1ccc(C(=O)COc2ccccc2C(N)=O)cc1`, the IC50 was > 79 µM (inactive). As for `COc1cccc(/C=N/NC(=O)c2ccncc2)c1OC(=O)c1ccc(Br)cc1`, the pIC50 was 4.61. Consider `O=C(COC(=O)Cc1n[nH]c(=O)c2ccccc12)Nc1c(Br)cc([N+](=O)[O-])cc1Br`, for which the IC50 is > 79 µM (inactive). Same read-out and setting: in the case of `O=C(CCc1nc2ccccc2c(=O)[nH]1)N1CCCc2ccccc21` it was > 79 µM (inactive).

For `O=C(NN=Cc1cccc([N+](=O)[O-])c1)c1cc(-c2cccnc2)nc2ccccc12`, the IC50 was > 79 µM (inactive). With `O=C/C(=C\Nc1ccccn1)c1nc2cc(Cl)ccc2o1`, the IC50 is > 79 µM (inactive). As for `COc1cccc(Nc2nc3ccccc3n3nnnc23)c1`, the pIC50 is 4.84. For `COc1ccc2[nH]c(=O)c(CNc3ccc(C)c(C)c3)cc2c1`, the IC50 was 49.8 µM (inactive). As for `NC(=O)c1oc2ccccc2c1NC(=O)c1ccco1`, the pIC50 is 4.53. On to `Cc1ccc(CNC(=O)CCc2nc3ccccc3c(=O)[nH]2)cc1`, for which the pIC50 was 4.86. Take `Cc1ccc(C)c(NC(=O)C(Sc2ncnc3ccccc23)c2ccccc2)c1` (stereo not drawn): the IC50 is > 79 µM (inactive).

Regarding `CC(=O)c1cccc(NC(=O)C(C)OC(=O)Cc2n[nH]c(=O)c3ccccc23)c1` (stereo not drawn), the IC50 is > 79 µM (inactive). With `O=C(Nc1ccccc1C(=O)Nc1ccccc1C(=O)NCc1ccco1)c1ccco1`, the pIC50 is 5.10. `O=C(CCn1nc(-c2ccccc2)c2ccccc2c1=O)N1CCN(c2ccccc2)CC1`: the IC50 was > 79 µM (inactive). Same read-out and setting: in the case of `CCOc1cc(NC(=O)C2CC2)c(OCC)cc1NC(=O)c1ccccn1` it was > 79 µM (inactive). On the same count and under the same terms, under `CCOc1ccc(C(=O)Nc2cccc(-c3nc4cccnc4o3)c2)cc1Cl` stands 32.2 µM (inactive); under `COc1ccc(N/C=C(\C#N)c2nc3ccccc3n2C)c(OC)c1`, > 79 µM (inactive). In the case of `COc1cccc(/C=N/NC(=O)c2[nH]c(C)c(C(=O)N/N=C/c3cccc(OC)c3)c2C)c1`, the negative logarithm of the IC50 (pIC50) was 4.93.

For `COc1cc(/C=N/NC(=O)NC23CC4CC(CC(C4)C2)C3)ccc1OCC(N)=O`, the IC50 is > 79 µM (inactive). The same measure, in the same setting: under `N#CCCN(C(=O)COC(=O)CCc1nc2ccccc2c(=O)[nH]1)c1ccc(F)cc1` stands > 79 µM (inactive); under `COc1ccc(NC(=S)N(Cc2cccnc2)Cc2cc3cc(OC)c(OC)cc3[nH]c2=O)cc1`, > 79 µM (inactive). On the same count and under the same terms, in the case of `O=P(Nc1ccccc1)(Oc1ccccc1)Oc1ccccc1` it was > 79 µM (inactive). As to `CC(=O)Nc1cc(-c2ccc(C(=O)N3CCOCC3)cc2)cn2c(-c3ccc(C(C)=O)cc3)cnc12`, the pIC50 is 4.60. For the molecule `CNC(=O)c1ccc(-c2sc3nc(N4CCOCC4)c4c(c3c2N)CC(C)(C)OC4)o1`, the pIC50 was 4.88. The same measure, in the same setting: in the case of `CCc1nc2ccccc2c(C(=O)OCc2nc3ccccc3c(=O)[nH]2)c1C` it was 4.64.

As usually defined, the IC50 is the concentration that inhibits the measured activity by half. In general, pIC50 refers to the negative decadic logarithm of the IC50, by convention in mol/L.
